Measurements as given in US8815865B2, “Substituted 4-hydroxypyrimidine-5-carboxamides” (Merck Sharp & Dohme Corp., priority 2009, dated 2014).

How the values were obtained:
[1] = Pharmacokinetics after intravenous dosing in dogs (plasma concentrations by LC-MS/MS); assay type: in vivo, dogs (beagles); conditions: dog (beagle), 0.5 mg/kg intravenously
Procedure: The pharmacokinetics of Example 1 (E-1) was evaluated, and compared to that of Example 163 and Example 190 both disclosed in International PCT Application, No. PCT/US09/036,501, filed Mar. 9, 2009. Compounds were formulated in a 1:1 solution (by volume) of PEG200: water and dosed at 0.5 mg/kg of body weight. The formulation was dosed intravenously in 2 dogs (beagles), and blood was drawn at the following time points (hours) 0.08, 0.25, 0.5, 1, 2, 4, 6, 8, 24. The plasma concentrations shown in the table below were determined by protein precipitation followed by liquid chromatography—tandem mass spectrometry analysis.

PHD2 = target: T1, PHD2 (Homo sapiens, UniProt Q9GZT9); experiment: PHD2 / HIF-1α peptide time resolved fluorescence inhibition assay; assay type: biochemical
T1 construct: FLAG-tagged full length PHD2 expressed in and purified from baculovirus-infected Sf9 cells; FLAG; made in house; host or cells: baculovirus-infected Sf9 cells
Procedure: To each well of a 96-well plate was added 1 μL of test compound in DMSO and 20 μl of assay buffer (50 mM Tris pH 7.4/0.01% Tween-20/0.1 mg/ml bovine serum albumin/10 μM ferrous sulfate/1 mM sodium ascorbate/20 μg/ml catalase) containing 0.15 μg/ml FLAG-tagged full length PHD2 expressed in and purified from baculovirus-infected Sf9 cells. After a 30 min preincubation at room temperature, the enzymatic reactions were initiated by the addition of 4 μL of substrates (final concentrations of 0.2 μM 2-oxoglutarate and 0.5 μM HIF-1α peptide biotinyl-DLDLEMLAPYIPMDDDFQL). After 2 hr at room temperature, the reactions were terminated and signals were developed by the addition of a 25 μL quench/detection mix to a final concentration of 1 mM ortho-phenanthroline, 0.1 mM EDTA, 0.5 nM anti-(His)6 LANCE reagent (Perkin-Elmer Life Sciences), 100 nM AF647-labeled streptavidin (Invitrogen), and 2 μg/ml (His)6-VHL complex (S. Tan (2001) Protein Expr. Purif. 21, 224-234). The ratio of time resolved fluorescence signals at 665 and 620 nm was determined, and percent inhibition was calculated relative to an uninhibited control sample run in parallel.

T1 sequence (Q9GZT9 whole entry): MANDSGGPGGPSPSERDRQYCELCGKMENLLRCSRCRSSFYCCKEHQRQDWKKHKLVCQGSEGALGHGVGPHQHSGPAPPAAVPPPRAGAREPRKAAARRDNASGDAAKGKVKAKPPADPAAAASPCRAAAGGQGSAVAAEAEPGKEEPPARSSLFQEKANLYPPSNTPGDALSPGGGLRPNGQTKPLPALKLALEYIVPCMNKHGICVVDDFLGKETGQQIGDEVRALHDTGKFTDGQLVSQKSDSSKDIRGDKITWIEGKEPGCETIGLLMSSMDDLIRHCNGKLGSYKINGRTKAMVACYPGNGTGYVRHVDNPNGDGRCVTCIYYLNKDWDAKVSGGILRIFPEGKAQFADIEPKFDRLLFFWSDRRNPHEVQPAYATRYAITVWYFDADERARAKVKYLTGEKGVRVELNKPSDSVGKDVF

MRT [1]: 7.93 h | clearance [1]: 1.35 mL/min/kg | concentration at 0.08 h ([1]; PEG200:water 1:1, time 0.08 hours): 2230 nM | half-life ([1]; read-out: T ½ (converted)): 6.07 h | concentration at 0.25 h ([1]; time 0.25 hours): 2060 nM | concentration at 0.5 h ([1]; time 0.50 hours): 1960 nM | concentration at 1 h ([1]; time 1.00 hours): 1660 nM | concentration at 2 h ([1]; time 2.00 hours): 1390 nM | concentration at 4 h ([1]; time 4.00 hours): 1320 nM | concentration at 6 h ([1]; time 6.00 hours): 917 nM | concentration at 8 h ([1]; time 8.00 hours): 504 nM | concentration at 24 h ([1]; time 24.00 hours): 100 nM | IC50, inhibition of the interaction between PHD2 and a HIF peptide (PHD2; range printed in mixed units (nanomolar to micromolar)): 0.1 to 10000 nM | IC50 (PHD2; read-out: PHD2 binding activity expressed as IC50): ≤ 10 nM
Structure (SMILES): COc1ccc(C(NC(=O)c2cnc(-c3cccnn3)nc2O)C2CCOCC2)cn1 (single isomer, unassigned) [Example 1, (R)- or (S)-4-Hydroxy-N-[(6-methoxypyridin-3-yl)(tetrahydro-2H-pyran-4-yl)methyl]-2-pyridazin-3-ylpyrimidine-5-carboxamide]
